Like-named read-outs stand apart in the source and are kept apart here.
How the values were obtained:
[1] = system: mice; assay: Reversal effect against pentobarbital-induced hypothermia (Experiment 1); format: in vivo; settings: i.v., 10 minutes after pentobarbital (55 mg/kg i.p.), rectal temperature 30 minutes after test compound, dose required to reduce pentobarbital-hypothermia by 1.5° C.; for ED (1.5 degC): Mus musculus, iv, 0.5 h, read-out: Reversal effect against pentobarbitalhypothermia ED1.5° C
Description: The following experiments show the action on low body temperature induced by pentobarbital (Experiment 1), and on acute toxicity for typical compounds of the present invention.
Pentobarbital-induced hypothermia
Nine male mice weighing 18 to 22 g were used for each dosage of the test compounds. Mice were given intravenously various doses of test compounds 10 minutes after pentobarbital (55 mg/kg i.p.). Rectal temperature was measured before pentobarbital dosing and immediately before and 30 minutes after the test compounds. Effects of test compounds were evaluated as ED1.5° C., the dose required to reduce by 1.5° C. pentobarbital-hypothermia of control group of mice which received only pentobarbital and saline. The results are shown in Talbe 1.
(A) Reversal effect against pentobarbitalhypothermia ED1.5° C

[2] = Acute toxicity (i.v.); parameters: species or system mice; settings: mouse, in vivo, iv
Description: That is, LD50 (i.v.) of the compound of the present invention was higher than 800 mg/kg.

Row | SMILES | ED (1.5 degC) [1] [mg/kg] | further results
1 | Cn1cnc(C[C@H](NC(=O)[C@H]2NC(=O)C2(C)C)C(=O)N2CCC[C@H]2C(N)=O)c1 [N^α -[(S)-3,3-dimethyl-4-oxo-2-azetidinylcarbonyl]-.tau.-methyl-L-histidyl-L-prolinamide] | 0.01 | 
2 | CC(O)[C@H]1C(=O)N[C@@H]1C(=O)N[C@@H](Cc1c[nH]cn1)C(=O)N1CCC[C@H]1C(N)=O (stereo partly drawn) [N^α -[(2S,3S)-3-(1-hydroxyethyl)-4-oxo-2-azetidinylcarbonyl]-L-histidyl-L-prolinamide] | 0.07 | 
3 | C[C@H]1C(=O)N[C@@H]1C(=O)N[C@@H](Cc1cn(C)cn1)C(=O)N1CCC[C@H]1C(N)=O [.tau.-Methyl-N^α --[(2S,3R)--3-methyl-4-oxo-2-azetidinyl-carbonyl]-L-histidyl-L-prolinamide] | 0.02 | 
4 | CC1(C)C(=O)N[C@@H]1C(=O)N[C@@H](Cc1c[nH]cn1)C(=O)N1CCC[C@H]1C(N)=O [N^α -[(S)-3,3-dimethyl-4-oxo-2-azetidinylcarbonyl]-L-histidyl-L-prolinamide] |  | LD50 at 24 h [2]: > 800 mg/kg
5 | CS[C@H]1C(=O)N[C@@H]1C(=O)N[C@@H](Cc1c[nH]cn1)C(=O)N1CCC[C@H]1C(N)=O [N^α -[(2R,3R)-3-methylthio-4-oxo-2-azetidinylcarbonyl]-L-histidyl-L-prolinamide] | 0.08 | 
6 | NC(=O)[C@@H]1CCCN1C(=O)[C@H](Cc1c[nH]cn1)NC(=O)[C@H]1NC(=O)[C@@H]1Cc1ccccc1 [N^α -[(2S,3R)-3-benzyl-4-oxo-2-azetidinylcarbonyl]-L-histidyl-L-prolinamide] | 0.04 | 
7 | NC(=O)[C@@H]1CCCN1C(=O)[C@H](Cc1c[nH]cn1)NC(=O)[C@@H]1CC(=O)N1CO [N^α -[(S)-1-hydroxymethyl-4-oxo-2-azetidinylcarbonyl]-L-histidyl-L-prolinamide] | 0.04 | 
8 | NC(=O)[C@@H]1CCCN1C(=O)[C@H](Cc1c[nH]cn1)NC(=O)[C@@H]1CCC(=O)N1 [TRH, L-pyroglutamyl-L-histidyl-L-prolinamide, reference compound] |  | LD50 at 24 h ([2]; male mice, observed for 24 hours, read-out: LD50 (i.v.)): 751 mg/kg; Reversal effect against pentobarbitalhypothermia ED1.5° C [1]: 0.1 mg/kg
9 | [N-]=[N+]=N[C@H]1C(=O)N[C@@H]1C(=O)N[C@@H](Cc1c[nH]cn1)C(=O)N1CCC[C@H]1C(N)=O [N^α -[(2S,3R)-3-azido-4-oxo-2-azetidinylcarbonyl]-L-histidyl-L-prolinamide] | < 0.01 | 

Reference: patent publication US4719207A, “CNS active substituted azetidinone compounds” (Yamanouchi Pharmaceutical Co., Ltd., priority 1984, dated 1988)
